Legend:
[1] = test system: transplanted rice; assay: Herbicidal damage on transplanted paddy rice, paddy field pot test; type: in vivo, Oryza sativa L. cultivar: Nihonbare; conditions: 125 g ai/ha applied onto water surface 5 days after transplanting; rated 3 weeks after treatment; 100% complete withering, 0% no damage
From the text: (§1) Test of herbicidal effect to weeds and damage on paddy rice in a paddy field: In a greenhouse, each three paddy rice seedlings (Oryza sativa L. cultivar: Nihonbare) were transplanted in each pot filled with paddy field soil. Each twenty forced sprouts of paddy rice (Oryza sativa L. cultivar: Nihonbare) were also inoculated in each pot. Then, any of seeds or tubers of Cyperus difformis L., Echinochloa crus-galli, Scirpus juncoides, SU-resistant Scirpus juncoides, annual broad leaf weeds (including Lindernia procumbens Philcox, Rotala indica Koehne, and Elatine triandra Schk), SU-resistant annual broad leaf weeds, Sagittaria pygmaea Miq, Cyperus serotinus Rottboel was inoculated in the pot and covered with water in about 2 to 3 cm depth. Five days after transplanting paddy rice, prescribed diluted solutions of formulations of the respective active compounds were applied onto the water surface. Each of the formulations was prepared as an emulsion by mixing 1 part by weight of active compound with 5 parts by weight of carrier and 1 part by weight of emulsifier (benzyloxy polyglycol ether). After the treatment, water depth of 3 cm was kept. A herbicidal effect and a herbicidal damage on paddy rice were investigated 3 weeks after the treatment. The herbicidal effect and the herbicidal damage on paddy rice were rated as 100% in the case of complete withering and 0% in the case of no herbicidal effect or no herbicidal damage.

[2] = test system: Echinochloa crus-galli; assay: Herbicidal effect to weeds in a paddy field, pot test; type: in vivo; conditions: 125 g ai/ha applied onto water surface; rated 3 weeks after treatment; 100% complete withering, 0% no effect
From the text: as §1

[3] = test system: SU-resistant annual broad leaf weeds; assay: as above; type: in vivo; conditions: 125 g ai/ha applied onto water surface; rated 3 weeks after treatment; 100% complete withering, 0% no effect
From the text: as §1

[4] = test system: Scirpus juncoides; assay: as above; type: in vivo; conditions: 125 g ai/ha applied onto water surface; rated 3 weeks after treatment; 100% complete withering, 0% no effect
From the text: as §1

[5] = test system: annual broad leaf weeds; assay: as above; type: in vivo; conditions: 125 g ai/ha applied onto water surface; rated 3 weeks after treatment; 100% complete withering, 0% no effect
From the text: as §1

[6] = test system: SU-resistant Scirpus juncoides; assay: as above; type: in vivo; conditions: 125 g ai/ha applied onto water surface; rated 3 weeks after treatment; 100% complete withering, 0% no effect
From the text: as §1

[7] = test system: Cyperus serotinus; assay: as above; type: in vivo, Cyperus serotinus Rottboel; conditions: 125 g ai/ha applied onto water surface; rated 3 weeks after treatment; 100% complete withering, 0% no effect
From the text: as §1

[8] = test system: directley seeded rice; assay: Herbicidal damage on directly seeded paddy rice, paddy field pot test; type: in vivo, Oryza sativa L. cultivar: Nihonbare; conditions: 125 g ai/ha applied onto water surface; rated 3 weeks after treatment; 100% complete withering, 0% no damage
From the text: as §1

[9] = test system: Sagittaria pygmaea; assay: Herbicidal effect to weeds in a paddy field, pot test; type: in vivo, Sagittaria pygmaea Miq; conditions: 125 g ai/ha applied onto water surface; rated 3 weeks after treatment; 100% complete withering, 0% no effect
From the text: as §1

## COc1cc(OC)nc(C(O)c2cccc(Br)c2NS(=O)(=O)CC(F)(F)F)n1 (centres unmarked) [Compound 1, 2-bromo-6-[(4,6-dimethoxypyrimidin-2-yl)(hydroxy)methyl]-N-2,2,2-trifluoroethanesulfonanilide]
[1]
  herbicidal damage on transplanted rice: 0%
[2]
  herbicidal effect Echinochloa crus-galli: 100%
[3]
  herbicidal effect SU-resistant annual broad leaf weeds: 100%
[4]
  herbicidal effect Scirpus juncoides: 100%
[5]
  herbicidal effect annual broad leaf weeds: 100%
[6]
  herbicidal effect SU-resistant Scirpus juncoides: 100%
[7]
  herbicidal effect Cyperus serotinus: 100%
[8]
  herbicidal damage on directley seeded rice: 10%
[9]
  herbicidal effect Sagittaria pygmaea: 100%

## COc1cc(OC)nc(C(=O)c2cccc(Br)c2NS(=O)(=O)CC(F)(F)F)n1 [Compound 2, 2-bromo-6-[(4,6-dimethoxypyrimidin-2-yl)carbonyl]-N-2,2,2-trifluoroethanesulfonanilide]
[1]
  herbicidal damage on transplanted rice: 10%
[2]
  herbicidal effect Echinochloa crus-galli: 100%
[3]
  herbicidal effect SU-resistant annual broad leaf weeds: 100%
[4]
  herbicidal effect Scirpus juncoides: 100%
[5]
  herbicidal effect annual broad leaf weeds: 100%
[6]
  herbicidal effect SU-resistant Scirpus juncoides: 100%
[7]
  herbicidal effect Cyperus serotinus: 100%
[8]
  herbicidal damage on directley seeded rice: 20%
[9]
  herbicidal effect Sagittaria pygmaea: 100%

## COc1cc(OC)nc(C(SC)c2cccc(Br)c2NS(=O)(=O)CC(F)(F)F)n1 (centres unmarked) [Compound 4, 2-bromo-6-[(4,6-dimethoxypyrimidin-2-yl)methylthiomethyl]-N-2,2,2-trifluoroethanesulfonanilide]
[1]
  herbicidal damage on transplanted rice: 0%
[2]
  herbicidal effect Echinochloa crus-galli: 100%
[3]
  herbicidal effect SU-resistant annual broad leaf weeds: 100%
[4]
  herbicidal effect Scirpus juncoides: 100%
[5]
  herbicidal effect annual broad leaf weeds: 100%
[6]
  herbicidal effect SU-resistant Scirpus juncoides: 90%
[7]
  herbicidal effect Cyperus serotinus: 100%
[8]
  herbicidal damage on directley seeded rice: 10%
[9]
  herbicidal effect Sagittaria pygmaea: 100%

## COc1cc(OC)nc(C(O)c2cccc(I)c2NS(=O)(=O)CC(F)(F)F)n1 (centres unmarked) [Compound 5, 2-iodo-6-[(4,6-dimethoxypyrimidin-2-yl)(hydroxy)methyl]-N-2,2,2-trifluoroethanesulfonanilide]
[1]
  herbicidal damage on transplanted rice: 20%
[2]
  herbicidal effect Echinochloa crus-galli: 100%
[3]
  herbicidal effect SU-resistant annual broad leaf weeds: 100%
[4]
  herbicidal effect Scirpus juncoides: 100%
[5]
  herbicidal effect annual broad leaf weeds: 100%
[6]
  herbicidal effect SU-resistant Scirpus juncoides: 90%
[7]
  herbicidal effect Cyperus serotinus: 100%
[8]
  herbicidal damage on directley seeded rice: 30%
[9]
  herbicidal effect Sagittaria pygmaea: 100%

## COc1cc(OC)nc(C(SC)c2cccc(I)c2NS(=O)(=O)CC(F)(F)F)n1 (centres unmarked) [Compound 8, 2-iodo-6-[(4,6-dimethoxypyrimidin-2-yl)(methylthio)methyl]-N-2,2,2-trifluoroethanesulfonanilide]
[1]
  herbicidal damage on transplanted rice: 0%
[2]
  herbicidal effect Echinochloa crus-galli: 100%
[3]
  herbicidal effect SU-resistant annual broad leaf weeds: 100%
[4]
  herbicidal effect Scirpus juncoides: 100%
[5]
  herbicidal effect annual broad leaf weeds: 100%
[6]
  herbicidal effect SU-resistant Scirpus juncoides: 90%
[7]
  herbicidal effect Cyperus serotinus: 100%
[8]
  herbicidal damage on directley seeded rice: 10%
[9]
  herbicidal effect Sagittaria pygmaea: 100%

## COc1nc(OC)nc(C(=O)c2cccc(Br)c2N(C)S(=O)(=O)C(F)F)n1 [Compound 10, N-{2-bromo-6-[(4,6-dimethoxy-1,3,5-triazin-2-yl)carbonyl]phenyl}-N-methyl-1,1-difluoromethanesulfonamide]
[1]
  herbicidal damage on transplanted rice: 10%
[2]
  herbicidal effect Echinochloa crus-galli: 100%
[3]
  herbicidal effect SU-resistant annual broad leaf weeds: 100%
[4]
  herbicidal effect Scirpus juncoides: 100%
[5]
  herbicidal effect annual broad leaf weeds: 90%
[6]
  herbicidal effect SU-resistant Scirpus juncoides: 90%
[7]
  herbicidal effect Cyperus serotinus: 100%
[8]
  herbicidal damage on directley seeded rice: 30%
[9]
  herbicidal effect Sagittaria pygmaea: 100%

## COc1cc(Cl)nc(C(=O)c2cccc(Cl)c2N(C)S(=O)(=O)C(F)F)n1 [Compound 51, N-{2-chloro-6-[(4-chloro-6-methoxypyrimidin-2-yl)carbonyl]phenyl}-N-methyl-1,1-difluoromethanesulfonamide]
[1]
  herbicidal damage on transplanted rice: 10%
[2]
  herbicidal effect Echinochloa crus-galli: 100%
[4]
  herbicidal effect Scirpus juncoides: 100%
[5]
  herbicidal effect annual broad leaf weeds: 90%
[6]
  herbicidal effect SU-resistant Scirpus juncoides: 90%
[7]
  herbicidal effect Cyperus serotinus: 100%
[8]
  herbicidal damage on directley seeded rice: 30%
[9]
  herbicidal effect Sagittaria pygmaea: 100%

Source: US20090062536A1, “USE OF SULFONANILIDE COMPOUNDS AS HERBICIDE” (Bayer CropScience AG, priority 2007, published 2009)
